Source: US12384777B2 (Tay Therapeutics Limited, priority 2019, dated 2025)

Columns and labels:
[1] = biological target: BRD4 BD1 (Homo sapiens (Human), UniProt O60885); assay: Bromodomain binding assay (T7 phage display, qPCR), BRD4 BD1; conditions: read-out: BRD4 BD1 Kd
Description: T7 phage strains displaying bromodomains were grown in parallel in 24-well blocks in an E. coli host derived from the BL21 strain. E. coli were grown to log-phase and infected with T7 phage from a frozen stock (multiplicity of infection=0.4) and incubated with shaking at 32° C. until lysis (90-150 min). The lysates were centrifuged (5,000×g) and filtered (0.2 μm) to remove cell debris. Streptavidin-coated magnetic beads were treated with biotinylated small molecule or acetylated peptide ligands for 30 min at RT to generate affinity resins for bromodomain assays. The ligated beads were blocked with excess biotin and washed with blocking buffer (SeaBlock (Pierce), 1% BSA, 0.05% Tween 20, 1 mM DTT) to remove unbound ligand and to reduce non-specific phage binding. Binding reactions were assembled by combining bromodomains, ligated affinity beads, and test compounds in 1× binding buffer (16% SeaBlock, 0.32×PBS, 0.02% BSA, 0.04% Tween 20, 0.004% Sodium azide, 7.9 mM DTT). Test compounds were prepared as 1000× stocks in 100% DMSO and subsequently diluted 1:25 in MEG. The compounds were then diluted directly into the assays such that the final concentrations of DMSO and MEG were 0.1% and 2.4%, respectively. All reactions were performed in polypropylene 384-well plates in a final volume of 0.02 ml. The assay plates were incubated at RT with shaking for 1 hr and the affinity beads were washed with wash buffer (1×PBS, 0.05% Tween 20). The beads were then re-suspended in elution buffer (1×PBS, 0.05% Tween 20, 2 μM non-biotinylated affinity ligand) and incubated at RT with shaking for 30 min. The bromodomain concentration in the eluates was measured by quantitative polymerase chain reaction (qPCR).
An 11-point 3-fold serial dilution of each test compound was prepared in 100% DMSO at 1000× final test concentration. All compounds were distributed by acoustic transfer (non-contact dispensing) in 100% DMSO. The compounds were then diluted directly into the assays such that the final concentration of DMSO was 0.09%. Most dissociation constants were determined using a compound top concentration=10,000 nM. If the initial dissociation constant determined was <0.169 nM (the lowest concentration tested), the measurement was repeated with a serial dilution starting at a lower top concentration.
The same bromodomain assay procedure as that outlined above was used. Example compounds were screened at 30 times their Kd, and results for primary screen binding interactions are reported as ‘% Ctrl’, where lower numbers indicate stronger hits in the matrix.

[2] = system: human liver hepatocytes; assay: Intrinsic clearance in human liver hepatocytes; assay type: in vitro ADME; conditions: human cryopreserved hepatocytes, 0.5 μM test compound
Description: Vials of human cryopreserved hepatocytes, supplied by Life Technologies, were thawed according to manufacturer's instructions and cells re-suspended in Williams Medium E (WME) containing cell maintenance supplement pack (CM4000, Life Technologies). Hepatocytes were incubated in suspension (0.5 million cells/mL) in 48 well non-collagen coated cell culture plates for 10 min at 37° C., 5% CO2. Upon addition of an equal volume of supplemented WME containing 1 μM test compound, an aliquot of incubation solution was removed to acetonitrile containing internal standard (final concentration 0.5 μM test compound and a cell density of 0.25 million cells/mL). Similarly, aliquots were removed at 3, 6, 9, 15, 30, 45, 60, 90 and 120 min. 100 μL of 80:20 water:acetonitrile was added to all samples and the analysis plate was centrifuged for 10 min at RT prior to injection and analysis of samples by UPLC-MS/MS. The response (area ratio of test compound to internal standard) was plotted against time using an exponential decay model from which rate of disappearance was calculated.

Cn1cc(-c2ccn(C)c(=O)c2Oc2cccc(O)c2)ccc1=O [Example 37, 3′-(3-hydroxyphenoxy)-1,1′-dimethyl-[3,4′-bipyridine]-2′,6(1H,1′H)-dione]
Kd [1]: 100 to 1000 nM

Cn1cc(-c2scnc2Cc2ccccc2)c2cc[nH]c2c1=O [Example 17, 4-(4-benzylthiazol-5-yl)-6-methyl-1,6-dihydro-7H-pyrrolo[2,3-c]pyridin-7-one]
Kd [1]: 10 to 100 nM

COc1ccc(Oc2cn(C)c(=O)cc2-c2ccc(=O)n(C)c2)cc1 [Example 27, 5′-(4-methoxyphenoxy)-1,1′-dimethyl-[3,4′-bipyridine]-2′,6(1H,1′H)-dione]
Intrinsic clearance, % Liver Blood Flow [2]: <34 % Liver Blood Flow | Kd [1]: 100 to 1000 nM

Cn1cc(Cc2ccccc2)c(-c2cn(C)c(=O)c3[nH]ccc23)cc1=O [Example 13, 4-(5-benzyl-1-methyl-2-oxo-1,2-dihydropyridin-4-yl)-6-methyl-1,6-dihydro-7H-pyrrolo[2,3-c]pyridin-7-one]
Intrinsic clearance, % Liver Blood Flow [2]: 34 % Liver Blood Flow | Kd [1]: 100 to 1000 nM

COc1cccc(Oc2c(-c3cn(C)c(=O)c4[nH]ccc34)ccn(C)c2=O)c1 [Example 32, 4-(3-(3-methoxyphenoxy)-1-methyl-2-oxo-1,2-dihydropyridin-4-yl)-6-methyl-1,6-dihydro-7H-pyrrolo[2,3-c]pyridin-7-one]
Intrinsic clearance, % Liver Blood Flow [2]: <34 % Liver Blood Flow | Kd [1]: 10 to 100 nM

Cn1cc(-c2cc(=O)n(C)cc2Oc2ccc(O)cc2)ccc1=O [Example 28]
Intrinsic clearance, % Liver Blood Flow [2]: <34 % Liver Blood Flow | Kd [1]: 100 to 1000 nM

Cn1ccc(-c2cn(C)c(=O)c3[nH]ccc23)c(Oc2cccc(O)c2)c1=O [Example 33, 4-(3-(3-hydroxyphenoxy)-1-methyl-2-oxo-1,2-dihydropyridin-4-yl)-6-methyl-1,6-dihydro-7H-pyrrolo[2,3-c]pyridin-7-one]
Intrinsic clearance, % Liver Blood Flow [2]: <34 % Liver Blood Flow | Kd [1]: ≤ 10 nM

Cn1cc(-c2ncnn2Cc2ccccc2)c2cc[nH]c2c1=O [Example 16, 4-(1-benzyl-1H-1,2,4-triazol-5-yl)-6-methyl-1,6-dihydro-7H-pyrrolo[2,3-c]pyridin-7-one]
Kd [1]: 100 to 1000 nM

CCCOc1ccc(O)cc1-c1cn(C)c(=O)c2[nH]ccc12 [Example 9, 4-(5-hydroxy-2-propoxyphenyl)-6-methyl-1,6-dihydro-7H-pyrrolo[2,3-c]pyridin-7-one]
Intrinsic clearance, % Liver Blood Flow [2]: 95 % Liver Blood Flow | Kd [1]: 10 to 100 nM

Cn1cc(Oc2ccc(O)cc2)c(-c2cn(C)c(=O)c3[nH]ccc23)cc1=O [Example 26, 4-(5-(4-hydroxyphenoxy)-1-methyl-2-oxo-1,2-dihydropyridin-4-yl)-6-methyl-1,6-dihydro-7H-pyrrolo[2,3-c]pyridin-7-one]
Intrinsic clearance, % Liver Blood Flow [2]: <34 % Liver Blood Flow | Kd [1]: 10 to 100 nM

Cn1cc(-c2nccn2Cc2ccccc2)c2cc[nH]c2c1=O [Example 15, 4-(1-benzyl-1H-imidazol-2-yl)-6-methyl-1,6-dihydro-7H-pyrrolo[2,3-c]pyridin-7-one]
Kd [1]: 100 to 1000 nM

COc1ccc(Oc2c(-c3cn(C)c(=O)c4[nH]ccc34)ccn(C)c2=O)cc1 [Example 34, 4-(3-(4-methoxyphenoxy)-1-methyl-2-oxo-1,2-dihydropyridin-4-yl)-6-methyl-1,6-dihydro-7H-pyrrolo[2,3-c]pyridin-7-one]
Intrinsic clearance, % Liver Blood Flow [2]: <34 % Liver Blood Flow | Kd [1]: 10 to 100 nM

Cn1cc(-c2scnc2Oc2ccccc2O)ccc1=O [Example 21, 5-(4-(2-hydroxyphenoxy)thiazol-5-yl)-1-methylpyridin-2(1H)-one]
Kd [1]: 100 to 1000 nM

Cn1ccc(-c2cn(C)c(=O)c3[nH]ccc23)c(Oc2ccccc2O)c1=O [Example 31, 4-(3-(2-hydroxyphenoxy)-1-methyl-2-oxo-1,2-dihydropyridin-4-yl)-6-methyl-1,6-dihydro-7H-pyrrolo[2,3-c]pyridin-7-one]
Intrinsic clearance, % Liver Blood Flow [2]: <34 % Liver Blood Flow | Kd [1]: 10 to 100 nM

COc1ccccc1Oc1c(-c2cn(C)c(=O)c3[nH]ccc23)ccn(C)c1=O [Example 30, 4-(3-(2-methoxyphenoxy)-1-methyl-2-oxo-1,2-dihydropyridin-4-yl)-6-methyl-1,6-dihydro-7H-pyrrolo[2,3-c]pyridin-7-one]
Intrinsic clearance, % Liver Blood Flow [2]: <34 % Liver Blood Flow | Kd [1]: 10 to 100 nM

COc1ccc(Oc2cn(C)c(=O)cc2-c2cn(C)c(=O)c3[nH]ccc23)cc1 [Example 25, 4-(5-(4-methoxyphenoxy)-1-methyl-2-oxo-1,2-dihydropyridin-4-yl)-6-methyl-1,6-dihydro-7H-pyrrolo[2,3-c]pyridin-7-one]
Intrinsic clearance, % Liver Blood Flow [2]: 38 % Liver Blood Flow | Kd [1]: 10 to 100 nM

COc1cccc(Oc2cn(C)c(=O)cc2-c2cn(C)c(=O)c3[nH]ccc23)c1 [Example 23, 4-(5-(3-methoxyphenoxy)-1-methyl-2-oxo-1,2-dihydropyridin-4-yl)-6-methyl-1,6-dihydro-7H-pyrrolo[2,3-c]pyridin-7-one]
Intrinsic clearance, % Liver Blood Flow [2]: 38 % Liver Blood Flow | Kd [1]: 10 to 100 nM

Cn1cc(-c2ccnn2Cc2ccccc2)c2cc[nH]c2c1=O [Example 14, 4-(1-benzyl-1H-pyrazol-5-yl)-6-methyl-1,6-dihydro-7H-pyrrolo[2,3-c]pyridin-7-one]
Kd [1]: 100 to 1000 nM

Cn1ccc(-c2cn(C)c(=O)c3[nH]ccc23)c(Oc2ccc(O)cc2)c1=O [Example 35, 4-(3-(4-hydroxyphenoxy)-1-methyl-2-oxo-1,2-dihydropyridin-4-yl)-6-methyl-1,6-dihydro-7H-pyrrolo[2,3-c]pyridin-7-one]
Kd [1]: 10 to 100 nM

Cn1cc(-c2scnc2Oc2ccccc2O)c2cc[nH]c2c1=O [Example 19, 4-(4-(2-hydroxyphenoxy)thiazol-5-yl)-6-methyl-1,6-dihydro-7H-pyrrolo[2,3-c]pyridin-7-one]
Kd [1]: 100 to 1000 nM

Cn1cc(Oc2ccccc2O)c(-c2cn(C)c(=O)c3[nH]ccc23)cc1=O [Example 22, 4-(5-(2-hydroxyphenoxy)-1-methyl-2-oxo-1,2-dihydropyridin-4-yl)-6-methyl-1,6-dihydro-7H-pyrrolo[2,3-c]pyridin-7-one]
Intrinsic clearance, % Liver Blood Flow [2]: <34 % Liver Blood Flow | Kd [1]: 100 to 1000 nM

Cn1cc(-c2cc(=O)n(C)cc2Oc2cccc(O)c2)ccc1=O [Example 29, 5′-(3-hydroxyphenoxy)-1,1′-dimethyl-[3,4′-bipyridine]-2′,6(1H,1′H)-dione]
Intrinsic clearance, % Liver Blood Flow [2]: <34 % Liver Blood Flow | Kd [1]: 10 to 100 nM

Cn1cc(-c2ccn(C)c(=O)c2Oc2ccc(O)cc2)ccc1=O [Example 38, 3′-(4-hydroxyphenoxy)-1,1′-dimethyl-[3,4′-bipyridine]-2′,6(1H,1′H)-dione]
Kd [1]: 100 to 1000 nM

Cn1cc(-c2ccn(C)c(=O)c2Oc2ccccc2O)ccc1=O [Example 36, 3′-(2-hydroxyphenoxy)-1,1′-dimethyl-[3,4′-bipyridine]-2′,6(1H,1′H)-dione]
Kd [1]: 100 to 1000 nM

Cn1cc(-c2cc(O)ccc2OC2CCCCC2)c2cc[nH]c2c1=O [Example 11, 4-(2-(cyclohexyloxy)-5-hydroxyphenyl)-6-methyl-1,6-dihydro-7H-pyrrolo[2,3-c]pyridin-7-one]
Intrinsic clearance, % Liver Blood Flow [2]: 97 % Liver Blood Flow | Kd [1]: ≤ 10 nM

COC1CCC(Oc2ccc(O)cc2-c2cn(C)c(=O)c3[nH]ccc23)CC1 (stereo not drawn) [Example 12, 4-(5-hydroxy-2-((4-methoxycyclohexyl)oxy)phenyl)-6-methyl-1,6-dihydro-7H-pyrrolo[2,3-c]pyridin-7-one]
Intrinsic clearance, % Liver Blood Flow [2]: 82 % Liver Blood Flow | Kd [1]: ≤ 10 nM
